{"source": "patent US11266710B2", "about": "“Angio-3 for treatment of retinal angiogenic diseases” (SINGAPORE HEALTH SERVICES PTE LTD, priority 2017, dated 2022)", "key": {"[1]": {"test_system": "laser-induced CNV in Cynomolgus monkeys", "test": "Laser-induced CNV model in Cynomolgus monkeys (wet AMD model)", "type": "in vivo, Cynomolgus monkey", "details": "2 mg Angio-3, 2 mg and 4 mg PeptideQ, 2 mg Eylea, single IVT", "description": "FIGS. 25A, 25B, 25C, 25D, 25E, and 25F show the results of testing in a laser-induced chorodial neovascularization (CNV) model in Cynomolgus moneys developed as an experimental model of wet AMD. FIG. 25A is a schematic of the study design. FIG. 25B are representative fundus fluorescein angiography (FFA) images of all groups. FIG. 25C is a graph showing change in mean lesion grade of the eye in monkeys treated with a single dose 2 mg of Angio-3, dose 2 mg of anti-VEGF (Eylea), 2 mg of peptide (Q2) and 4 mg of peptide (Q4) and control. […] FIG. 25E is a graph of laser area quantified from the FFA images by ImageJ software. FIG. 25F are graphs of laser volume quantified from PS-OCT images by ImageJ software.\nA laser-induced choroidal neovascularization (CNV) model was developed and validated in Cynomolgus monkeys as experimental model of wet AMD. […] The development of active CNV was assessed by fluorescein angiography, at Day 14 the baseline degree of neovascularization and leakiness were measured and the final fluorescein angiography assessment was performed on Day 28. Leakage area was quantified by ImageJ software. The laser volume was quantified by Spectralis-Heidelberg software using SD-OCT images."}, "[2]": {"test_system": "KIMBA mice (KIMBA-hVEGF Transgenic)", "test": "Retinal angiogenesis (FFA leakage) in KIMBA mice", "type": "in vivo, mouse", "details": "single IVT injection 1 μg in 1 μL", "description": "FIGS. 1A, 1B, 1C and 1D show the efficacy of a single IV dose of angio-3 in attenuating the retinal angiogenesis in KIMBA mice, which have over expression of human VEGF (KIMBA-hVEGF Transgenic). FIG. 1A is a schematic of the experimental design. FIG. 1B are images showing Fundus Fluorescein Angiography (FFA) images of baseline and weekly after post treatment. Digital color fundus photographs were taken using a MICRON IV comprehensive system for rodent retinal imaging (Phoenix Research Labs, Pleasanton, Calif.) after pupil dilatation with topical administration of 1% tropicamide (Alcon Laboratories, Inc., Fort Worth, Tex.) and 2.5% phenylephrine (Bausch and Lomb Pharmaceuticals, Inc., Tampa, Fla.) ophthalmic solutions. […] Readout is the leakage of retinal vascularization post-administration of the drug. n=6 eyes per batch; n=3 batches; Values are expressed as means±s.e.m., **P<0.01, *P<0.05, student's t-test. […] All imaging was performed with a laser-scanning confocal fluorescence microscope.\nFIGS. 2A, 2B, 2C and 2D show the efficacy of a single IVT dose of angio-3 and Eylea (anti-VEGF), positive control in attenuating the retinal angiogenesis in KIMBA mice. […] Readout is the leakage of retinal vascularization post-administration of the drug. n=10 eyes per batch; n=2 batches; Values are expressed as means±s.e.m., **P<0.01, *P<0.05, student's t-test. […]"}}}
{"substance": "Eylea: Eylea (anti-VEGF), positive control; clinical compound [reference compound]", "values": [{"measurement": "comparative efficacy between treatment groups", "setting": "[1]", "result": "superior efficacy as compared to test peptides"}, {"measurement": "duration of effect in attenuating retinal angiogenesis post treatment", "setting": "[2]", "result": 4, "unit": "weeks"}]}
